From BindingDB's records for doi:10.1016/s0968-0896(02)00069-x (Universidad De Navarra, 2002) come the findings set out here.

Molecules are shown by their SMILES. Where a name gives a salt, the structure may show the parent alone.

Cyclin-dependent kinase 1/G2/mitotic-specific cyclin-B, sequence (Q9DGD3 whole entry): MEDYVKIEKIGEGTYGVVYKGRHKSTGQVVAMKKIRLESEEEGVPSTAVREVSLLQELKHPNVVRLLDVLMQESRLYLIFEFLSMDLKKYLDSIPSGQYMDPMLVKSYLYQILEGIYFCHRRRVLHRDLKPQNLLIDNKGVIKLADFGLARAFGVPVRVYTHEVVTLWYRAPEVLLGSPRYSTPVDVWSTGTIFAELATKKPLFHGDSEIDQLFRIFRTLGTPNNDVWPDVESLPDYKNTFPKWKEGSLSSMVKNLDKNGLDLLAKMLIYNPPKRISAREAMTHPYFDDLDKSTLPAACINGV
Cyclin-dependent kinase 1/G2/mitotic-specific cyclin-B, sequence (P15206 whole entry): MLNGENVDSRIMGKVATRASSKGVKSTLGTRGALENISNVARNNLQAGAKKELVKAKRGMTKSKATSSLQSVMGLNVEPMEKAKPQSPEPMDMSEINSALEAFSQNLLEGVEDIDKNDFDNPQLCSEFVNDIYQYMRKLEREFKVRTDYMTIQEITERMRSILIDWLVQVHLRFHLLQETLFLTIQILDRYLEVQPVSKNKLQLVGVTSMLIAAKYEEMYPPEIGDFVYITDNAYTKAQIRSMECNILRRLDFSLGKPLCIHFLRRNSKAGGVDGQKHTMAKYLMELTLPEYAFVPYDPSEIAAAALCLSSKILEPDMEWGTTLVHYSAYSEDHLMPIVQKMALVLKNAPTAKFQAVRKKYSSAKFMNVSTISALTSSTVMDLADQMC

For the experiment, the target named is Cyclin-dependent kinase 1/G2/mitotic-specific cyclin-B (Marthasterias glacialis, UniProt P15206+Q9DGD3). The experiment can be described thus: Kinase Inhibition Assay. As to conditions: pH 7.2; 30 °C. As for the experimental part:
Kinase activities were assayed in buffers containing substrate, enzyme, and inhibitor at 30 °C in the presence of 15 uM ATP/ [gamma-32P] ATP. 32P incorporation was measured with a scintillation counter. The IC50 is the inhibitor concentration, which inhibits 50% of kinase activity that catalyzes the transfer of the terminal phosphate from 32P labeled ATP to the substrate.
Broadly, the IC50 is the concentration at which inhibition is half-maximal. Low readings indicate greater potency in that assay, high ones weaker potency in that assay. `CCN(CC)CCn1nc(N)c2nc3cc(C)c(C)cc3nc21` [3-Amino-6,7-dimethyl-1-(2-diethylamino-ethyl)-1H-pyrazolo[3,4-b]quinoxaline] yielded a half-inhibitory concentration (IC50) of more than 10 µM.

Regarding `Nc1nn(C(=O)c2ccncc2)c2nc3ccccc3nc12` [3-amino-1-(pyridin-4-yl-carbonyl)-1H-pyrazolo[3,4-b]quinoxaline], the half-maximal inhibitory concentration (IC50) was more than 10 µM.

For the compound `Cc1cc2nc3[nH]nc(N)c3nc2cc1C` [3-Amino-6,7-dimethyl-1H-pyrazolo[3,4-b]quinoxaline], half-maximal inhibition (IC50) was put at 21 µM.

`CCN(CC)CCn1nc(N)c2nc3ccccc3nc21` [1-[2-(diethylamino)ethyl]-1H-pyrazolo[3,4-b]quinoxalin-3-amine] returned an IC50 of more than 10 µM.

The compound `Clc1ccc2nc3[nH]nc(Cl)c3nc2c1` [3,6-Dichloro-1H-pyrazolo[3,4-b]quinoxaline] yielded an IC50 of 15 µM.

As for `CN(C)CCn1nc(N)c2nc3cc(Cl)ccc3nc21` [3-Amino-6-chloro-1-(2-dimethylamino-ethyl)-1H-pyrazolo[3,4-b]quinoxaline], the IC50 was more than 10 µM.

Compound `CN(C)CCn1nc(N)c2nc3ccccc3nc21` [1-[2-(dimethylamino)ethyl]-1H-pyrazolo[3,4-b]quinoxalin-3-amine] yielded an IC50 of more than 10 µM.

Compound `Cc1ccc2nc3[nH]nc(N)c3nc2c1` [3-Amino-6-methyl-1H-pyrazolo[3,4-b]quinoxaline] registered a half-maximal inhibitory concentration (IC50) of 3.5 µM.

Consider `Nc1n[nH]c2nc3ccccc3nc12` [1H-pyrazolo[3,4-b]quinoxalin-3-amine], for which the half-inhibitory concentration (IC50) came to 0.6 µM.

`CN(C)CCCn1nc(N)c2nc3cc(Cl)ccc3nc21` [6-chloro-1-[3-(dimethylamino)propyl]-1H-pyrazolo[3,4-b]quinoxalin-3-amine] yielded an IC50 of more than 10 µM.

In turn, `CCN(CC)CCn1nc(N)c2nc3cc(Cl)ccc3nc21` [6-chloro-1-[2-(diethylamino)ethyl]-1H-pyrazolo[3,4-b]quinoxalin-3-amine] registered a concentration for half-maximal inhibition (IC50) of more than 10 µM.

`Cc1cc2nc3c(N)nn(CCCN(C)C)c3nc2cc1C` [1-[3-(dimethylamino)propyl]-6,7-dimethyl-1H-pyrazolo[3,4-b]quinoxalin-3-amine] displayed a 50% inhibitory concentration (IC50) of more than 10 µM.

The compound `Clc1n[nH]c2nc3ccccc3nc12` [3-Chloro-1H-pyrazolo[3,4-b]quinoxaline] returned an IC50 of 22 µM.

The compound `COc1ccc2[nH]c3nnc(N)c-3nc2c1` [6-methoxy-1H-pyrazolo[3,4-b]quinoxalin-3-amine] gave an IC50 of 4.8 µM.

Regarding `Nc1n[nH]c2nc3ccc(Cl)cc3nc12` [6-chloro-1H-pyrazolo[3,4-b]quinoxalin-3-amine], the IC50 was found to be 4.56 µM.

Compound `CN(C)CCCn1nc(N)c2nc3ccccc3nc21` [3-Amino-1-(3-dimethylamino-prop-1-yl)-1H-pyrazolo[3,4-b]quinoxaline hydrochloride] showed an IC50 of more than 10 µM.

As for `Nc1n[nH]c2nc3ccc(C(F)(F)F)cc3nc12` [3-Amino-6-trifluoromethyl-1H-pyrazolo[3,4-b]quinoxaline], the 50% inhibitory concentration (IC50) is 4.5 µM.
